Assay results published in patent US9328122B2, “7-substituted Hanfangichin B derivative, and preparation method and use thereof” (HANGZHOU BENSHENG PHARMACEUTICAL CO., LTD., priority 2012, dated 2016).
Converted amounts (≈) assume the structure as drawn.

Columns and labels:
[1] = system: tumor; test: Antitumor activity compared with fangchinoline, overall statement; format: cell-based; details: tumor type not specified
[2] = system: Becap-37 (human breast cancer) cells; test: MTT cell growth inhibition, solid tumor cells; format: cell-based; details: Homo sapiens, Becap-37, 72 h, MTT; for IC50: read-out: IC50; for IC90: read-out: IC90
In short: (§1)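 Exposure lasted 72 h, following 24 h growth of 6000 cells/well in DMEM high glucose containing 10% FBS at 37 °C in 5% CO2; endpoint was MTT-based viable cell concentration across tested compound concentrations.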

[3] = system: MG-63 (osteosarcoma) cells; test: MTT cell growth inhibition, solid tumor cells; format: cell-based; details: Homo sapiens, MG-63, 72 h, MTT; for IC50: read-out: IC50; for IC90: read-out: IC90
In short: as §1

[4] = system: Hep-2 (laryngeal carcinoma) cells; test: MTT cell growth inhibition, solid tumor cells; format: cell-based; details: Homo sapiens, Hep-2, 72 h, MTT; for IC50: read-out: IC50; for IC90: read-out: IC90
In short: as §1

[5] = system: A549 (human lung cancer) cells; test: MTT cell growth inhibition, solid tumor cells; format: cell-based; details: Homo sapiens, A549, 72 h, MTT; for IC50: read-out: IC50; for IC90: read-out: IC90
In short: as §1

[6] = system: Hep G2 (human liver cancer) cells; test: MTT cell growth inhibition, solid tumor cells; format: cell-based; details: Homo sapiens, HepG2, Hep G2, 72 h, MTT; for IC50: read-out: IC50; for IC90: read-out: IC90
In short: as §1

[7] = system: MGC-803 (human gastric cancer) cells; test: MTT cell growth inhibition, solid tumor cells; format: cell-based; details: MGC-803, 72 h, MTT; for IC50: read-out: IC50; for IC90: read-out: IC90
In short: as §1

[8] = system: RKO (human colon adenocarcinoma) cells; test: MTT cell growth inhibition, solid tumor cells; format: cell-based; details: Homo sapiens, RKO, 72 h, MTT; for IC50: read-out: IC50; for IC90: read-out: IC90
In short: as §1

[9] = system: U87-MG (malignant glioma) cells; test: MTT cell growth inhibition, solid tumor cells; format: cell-based; details: Homo sapiens, U-87 MG, U87-MG, 72 h, MTT; for IC50: read-out: IC50; for IC90: read-out: IC90
In short: as §1

[10] = system: Hela (human cervical cancer) cells; test: MTT cell growth inhibition, solid tumor cells; format: cell-based; details: Homo sapiens, Hela, 72 h, MTT; for IC50: read-out: IC50; for IC90: read-out: IC90
In short: as §1

[11] = system: H9 (acute lymphoblastic leukemia) cells; test: MTT cell growth inhibition, leukemia cells; format: cell-based, human; details: Homo sapiens, H9, 72 h, MTT; for IC50: read-out: IC50; for IC90: read-out: IC90
In short: (§2)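 Growth inhibition is assessed by MTT after leukemia cells, plated at 6000 per well in RPMI-1640 containing 10% fetal bovine serum, are exposed for 72 hours to graded compound concentrations added the day after plating.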

[12] = system: Kasumi-1 (acute myeloid leukemia M2 type) cells; test: MTT cell growth inhibition, leukemia cells; format: cell-based, human; details: Homo sapiens, Kasumi-1, 72 h, MTT; for IC50: read-out: IC50; for IC90: read-out: IC90
In short: as §2

[13] = system: Jurkat (acute lymphoblastic leukemia) cells; test: MTT cell growth inhibition, leukemia cells; format: cell-based, human; details: Homo sapiens, Jurkat, 72 h, MTT; for IC50: read-out: IC50; for IC90: read-out: IC90
In short: as §2

[14] = system: K562/ADR (K562adr, drug-resistant chronic myeloid leukemia) cells; test: MTT cell growth inhibition, leukemia cells; format: cell-based; details: Homo sapiens, K562/ADR, 72 h, MTT; for IC50: read-out: IC50; for IC90: read-out: IC90
In short: as §2

[15] = system: NB4 (acute promyelocytic leukemia) cells; test: MTT cell growth inhibition, leukemia cells; format: cell-based; details: Homo sapiens, NB4, 72 h, MTT; for IC50: read-out: IC50; for IC90: read-out: IC90
In short: as §2

[16] = system: CNE (nasopharyngeal carcinoma) cells; test: MTT cell growth inhibition, solid tumor cells; format: cell-based, human; details: Homo sapiens, CNE, 72 h, MTT; for IC50: read-out: IC50; for IC90: read-out: IC90
In short: as §1

[17] = system: CaEs-17 (esophageal cancer) cells; test: MTT cell growth inhibition, solid tumor cells; format: cell-based, human; details: Homo sapiens, CaEs17, CaEs-17, 72 h, MTT; for IC50: read-out: IC50; for IC90: read-out: IC90
In short: as §1

[18] = system: PANC-1 (pancreatic cancer) cells; test: MTT cell growth inhibition, solid tumor cells; format: cell-based, human; details: Homo sapiens, PANC-1, 72 h, MTT; for IC50: read-out: IC50; for IC90: read-out: IC90
In short: as §1

[19] = system: SK-OV-3 (ovarian cancer) cells; test: MTT cell growth inhibition, solid tumor cells; format: cell-based, human; details: Homo sapiens, SK-OV-3, 72 h, MTT; for IC50: read-out: IC50; for IC90: read-out: IC90
In short: as §1

[20] = system: PC-3 (prostate cancer) cells; test: MTT cell growth inhibition, solid tumor cells; format: cell-based, human; details: Homo sapiens, PC-3, 72 h, MTT; for IC50: read-out: IC50; for IC90: read-out: IC90
In short: as §1

SMILES	antitumor activity compared with that of fangchinoline [1]	IC50 [2]	IC90 [2]	IC50 [3]	IC90 [3]	IC50 [4]	IC90 [4]	IC50 [5]	IC90 [5]	IC50 [6]	IC90 [6]	IC50 [7]	IC90 [7]	IC50 [8]	IC90 [8]	IC50 [9]	IC90 [9]	IC50 [10]	IC90 [10]	IC50 [11]	other results
COc1ccc2cc1Oc1ccc(cc1)C[C@H]1c3cc(c(OC)cc3CCN1C)Oc1c(OCC3CC3)c(OC)cc3c1[C@H](C2)N(C)CC3 [BS-FC-208]	significantly superior	2.35 µg/mL (≈ 3.55 µM)	5.55 µg/mL (≈ 8.37 µM)	1.6 µg/mL (≈ 2.41 µM)	2.5 µg/mL (≈ 3.77 µM)	3.27 µg/mL (≈ 4.93 µM)	8.05 µg/mL (≈ 12.1 µM)	2.51 µg/mL (≈ 3.79 µM)	13.1 µg/mL (≈ 19.7 µM)	1.94 µg/mL (≈ 2.93 µM)	5.95 µg/mL (≈ 8.98 µM)	1.49 µg/mL (≈ 2.25 µM)	5.98 µg/mL (≈ 9.02 µM)	1.64 µg/mL (≈ 2.47 µM)	4.64 µg/mL (≈ 7 µM)	1.99 µg/mL (≈ 3 µM)	7.48 µg/mL (≈ 11.3 µM)	1.74 µg/mL (≈ 2.63 µM)	4 µg/mL (≈ 6.03 µM)	2.01 µg/mL (≈ 3.03 µM)	IC90 [11]: 4.28 µg/mL (≈ 6.46 µM); IC50 [12]: 0.97 µg/mL (≈ 1.46 µM); IC90 [12]: 4.01 µg/mL (≈ 6.05 µM); IC50 [13]: 0.75 µg/mL (≈ 1.13 µM); IC90 [13]: 1.88 µg/mL (≈ 2.84 µM); IC50 [14]: 0.28 µg/mL (≈ 0.422 µM); IC90 [14]: 2.35 µg/mL (≈ 3.55 µM); IC50 [15]: 0.48 µg/mL (≈ 0.724 µM); IC90 [15]: 2.48 µg/mL (≈ 3.74 µM); IC50 [16]: 2.7 µg/mL (≈ 4.07 µM); IC90 [16]: 6 µg/mL (≈ 9.05 µM); IC50 [17]: 1.79 µg/mL (≈ 2.7 µM); IC90 [17]: 6.87 µg/mL (≈ 10.4 µM); IC50 [18]: 2.87 µg/mL (≈ 4.33 µM); IC90 [18]: 8.31 µg/mL (≈ 12.5 µM); IC50 [19]: 3.77 µg/mL (≈ 5.69 µM); IC90 [19]: 7.85 µg/mL (≈ 11.8 µM); IC50 [20]: 3.07 µg/mL (≈ 4.63 µM); IC90 [20]: 5.91 µg/mL (≈ 8.92 µM)
C=CCN(C)CC(O)COc1c(OC)cc2c3c1Oc1cc4c(cc1OC)CCN(C)[C@H]4Cc1ccc(cc1)Oc1cc(ccc1OC)C[C@@H]3N(C)CC2 (stereo partly drawn) [BS-FC-409]	significantly superior	1.44 µg/mL (≈ 1.96 µM)	4.8 µg/mL (≈ 6.52 µM)	1.1 µg/mL (≈ 1.49 µM)	1.99 µg/mL (≈ 2.7 µM)	1.79 µg/mL (≈ 2.43 µM)	5.54 µg/mL (≈ 7.53 µM)	2.98 µg/mL (≈ 4.05 µM)	8.43 µg/mL (≈ 11.5 µM)	1.27 µg/mL (≈ 1.73 µM)	3.24 µg/mL (≈ 4.4 µM)	0.94 µg/mL (≈ 1.28 µM)	16 µg/mL (≈ 21.7 µM)	0.65 µg/mL (≈ 0.883 µM)	1.27 µg/mL (≈ 1.73 µM)	1.07 µg/mL (≈ 1.45 µM)	2.68 µg/mL (≈ 3.64 µM)	1.05 µg/mL (≈ 1.43 µM)	3.52 µg/mL (≈ 4.78 µM)	0.9 µg/mL (≈ 1.22 µM)	IC90 [11]: 2 µg/mL (≈ 2.72 µM); IC50 [12]: 1.46 µg/mL (≈ 1.98 µM); IC90 [12]: 4.82 µg/mL (≈ 6.55 µM); IC50 [13]: 1.02 µg/mL (≈ 1.39 µM); IC90 [13]: 3.33 µg/mL (≈ 4.52 µM); IC50 [14]: 0.16 µg/mL (≈ 0.217 µM); IC90 [14]: 1.38 µg/mL (≈ 1.88 µM); IC50 [15]: 0.59 µg/mL (≈ 0.802 µM); IC90 [15]: 1.76 µg/mL (≈ 2.39 µM); IC50 [16]: 0.95 µg/mL (≈ 1.29 µM); IC90 [16]: 3.94 µg/mL (≈ 5.35 µM); IC50 [17]: 0.91 µg/mL (≈ 1.24 µM); IC90 [17]: 4.9 µg/mL (≈ 6.66 µM); IC50 [18]: 3.17 µg/mL (≈ 4.31 µM); IC90 [18]: 7.14 µg/mL (≈ 9.7 µM); IC50 [19]: 2.82 µg/mL (≈ 3.83 µM); IC90 [19]: 9.85 µg/mL (≈ 13.4 µM); IC50 [20]: 2.89 µg/mL (≈ 3.93 µM); IC90 [20]: 5.8 µg/mL (≈ 7.88 µM)
